Earlier results in patent US6759200B1, “Thymidine phosphorylase gene sequence variances having utility in determining the treatment of disease” (Nuvelo, Inc., priority 1998, dated 2004).
Counter-ions that a name gives are not always drawn. Like-named read-outs stand apart in the source and are kept apart here. Blank lines part the entries; values can stand above or below the compound they belong to.

Tests used:
Alzheimer's disease = settings: PDR
nucleoside transport = nucleoside transport inhibitor paired with 5-FU and FA; Kohne et al. 1995
[1] = up to; depending on the regimen
[2] = target: T1, dihydropyrimidine dehydrogenase (DPD) (Homo sapiens, UniProt Q12882)
T1 construct: host or cells: human subjects in vivo (endogenous enzyme)
T1 sequence (Q12882 4-1025): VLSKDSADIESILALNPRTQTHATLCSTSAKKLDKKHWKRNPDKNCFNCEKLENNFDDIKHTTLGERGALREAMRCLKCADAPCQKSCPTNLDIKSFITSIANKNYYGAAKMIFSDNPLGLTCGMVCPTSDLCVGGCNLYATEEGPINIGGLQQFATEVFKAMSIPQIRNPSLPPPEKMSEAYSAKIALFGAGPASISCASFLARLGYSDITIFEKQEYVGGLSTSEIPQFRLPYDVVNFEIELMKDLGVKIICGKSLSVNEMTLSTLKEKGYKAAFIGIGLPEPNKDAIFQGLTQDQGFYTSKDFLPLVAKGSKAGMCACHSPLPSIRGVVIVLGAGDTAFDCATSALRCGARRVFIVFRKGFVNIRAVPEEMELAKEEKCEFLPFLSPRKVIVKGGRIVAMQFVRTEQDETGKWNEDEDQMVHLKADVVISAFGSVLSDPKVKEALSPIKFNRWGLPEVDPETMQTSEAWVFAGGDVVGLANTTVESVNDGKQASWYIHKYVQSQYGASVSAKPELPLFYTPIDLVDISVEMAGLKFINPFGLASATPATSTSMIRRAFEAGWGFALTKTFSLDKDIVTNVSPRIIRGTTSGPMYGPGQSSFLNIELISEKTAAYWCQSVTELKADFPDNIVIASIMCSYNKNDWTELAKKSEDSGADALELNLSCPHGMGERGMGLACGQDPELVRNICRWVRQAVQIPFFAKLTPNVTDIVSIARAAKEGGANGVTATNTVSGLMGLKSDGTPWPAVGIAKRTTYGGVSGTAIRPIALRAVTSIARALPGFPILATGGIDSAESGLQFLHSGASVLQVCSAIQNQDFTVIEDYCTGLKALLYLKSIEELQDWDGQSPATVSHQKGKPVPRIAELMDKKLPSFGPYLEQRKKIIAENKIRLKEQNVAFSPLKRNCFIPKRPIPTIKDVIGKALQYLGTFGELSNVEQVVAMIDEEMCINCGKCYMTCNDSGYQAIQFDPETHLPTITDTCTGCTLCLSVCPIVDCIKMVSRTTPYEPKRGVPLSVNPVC

[3] = test system: advanced colorectal cancer
[4] = Alzheimer's patients receiving Cognex
[5] = people genetically deficient in DPD, Diasio et al. 1988

SMILES: O=c1ccn([C@@H]2O[C@H](COP(=O)(O)OP(=O)(O)OP(=O)(O)O)[C@@H](O)[C@H]2O)c(=O)[nH]1 [Uridine triphosphate]
release of thromboxane A2 (cultured glial cells): concentration-dependent increases

SMILES: O=c1ccn([C@@H]2O[C@H](COP(=O)(O)OP(=O)(O)O)[C@@H](O)[C@H]2O)c(=O)[nH]1 [uridine diphosphate]
release of thromboxane A2 (cultured glial cells): concentration-dependent increases

SMILES: Nc1c2c(nc3ccccc13)CCCC2 [Cognex, tacrine hydrochloride]
patients showing no change or minimal worsening of their disease (Alzheimer's disease; Alzheimer's disease patients receiving Cognex): about 45% | patients minimally improved (Alzheimer's disease; [4]): About 58% | patients much improved (Alzheimer's disease; [4]): about 2%

SMILES: OCCN(CCO)c1nc(N2CCCCC2)c2nc(N(CCO)CCO)nc(N3CCCCC3)c2n1 [dipyridamole]
outcome compared to 5-FU/FA alone (nucleoside transport): failed to show a difference in outcome

dose excreted unchanged in the urine (normal individuals): 10% | elimination half life (normal individuals): 0.167 to 0.25 h | dose excreted unchanged in the urine [5]: 90% | elimination half life [5]: 2.5 h | dose of 5-FU transformed (catabolized) by DPD to the inactive dihydrofluorouracil form ([2]; in vivo): more than 80% | injected dose rapidly inactivated by DPD to therapeutically inactive catabolic products ([2]; injected dose): More than 85%
SMILES: O=c1[nH]cc(F)c(=O)[nH]1 [5-FU, 5-fluorouracil]
patients suffering serious gastrointestinal or hematopoietic toxicity [1]: 20-30% | partial remissions ([3]; 5-FU alone, advanced colorectal cancers): 10-30% | patients with an objective response ([3]; advanced colorectal cancer): 20-40% | patients with a complete response (complete tumor disappearance) ([3]; advanced colorectal cancer, of the objective responders): 1-5%

SMILES: Nc1ccn([C@@H]2O[C@H](COP(=O)(O)OP(=O)(O)OP(=O)(O)O)[C@@H](O)[C@H]2O)c(=O)n1 [cytidine triphosphate]
release of thromboxane A2 (cultured glial cells): concentration-dependent increases

SMILES: Cc1cn([C@H]2C[C@H](O)[C@@H](COP(=O)(O)OP(=O)(O)OP(=O)(O)O)O2)c(=O)[nH]c1=O [deoxythymidine triphosphate]
release of thromboxane A2 (cultured glial cells): concentration-dependent increases
